# Biological target: T1, Nav1.7 (or SCN9A) channel; HEK cells stably transfected with hSCN9A (Homo sapiens, UniProt Q15858)
# T1 construct: expressed in transfected cells
# Test: Nav1.7 block, PatchXpress 7000 automated whole-cell voltage clamp, estimated IC50 (EIC50)
# Type: cell-based
# Settings: estimated IC50; hSCN9A HEK cells, PatchXpress platform; Examples 283-814
# T1 sequence (Q15858 whole entry): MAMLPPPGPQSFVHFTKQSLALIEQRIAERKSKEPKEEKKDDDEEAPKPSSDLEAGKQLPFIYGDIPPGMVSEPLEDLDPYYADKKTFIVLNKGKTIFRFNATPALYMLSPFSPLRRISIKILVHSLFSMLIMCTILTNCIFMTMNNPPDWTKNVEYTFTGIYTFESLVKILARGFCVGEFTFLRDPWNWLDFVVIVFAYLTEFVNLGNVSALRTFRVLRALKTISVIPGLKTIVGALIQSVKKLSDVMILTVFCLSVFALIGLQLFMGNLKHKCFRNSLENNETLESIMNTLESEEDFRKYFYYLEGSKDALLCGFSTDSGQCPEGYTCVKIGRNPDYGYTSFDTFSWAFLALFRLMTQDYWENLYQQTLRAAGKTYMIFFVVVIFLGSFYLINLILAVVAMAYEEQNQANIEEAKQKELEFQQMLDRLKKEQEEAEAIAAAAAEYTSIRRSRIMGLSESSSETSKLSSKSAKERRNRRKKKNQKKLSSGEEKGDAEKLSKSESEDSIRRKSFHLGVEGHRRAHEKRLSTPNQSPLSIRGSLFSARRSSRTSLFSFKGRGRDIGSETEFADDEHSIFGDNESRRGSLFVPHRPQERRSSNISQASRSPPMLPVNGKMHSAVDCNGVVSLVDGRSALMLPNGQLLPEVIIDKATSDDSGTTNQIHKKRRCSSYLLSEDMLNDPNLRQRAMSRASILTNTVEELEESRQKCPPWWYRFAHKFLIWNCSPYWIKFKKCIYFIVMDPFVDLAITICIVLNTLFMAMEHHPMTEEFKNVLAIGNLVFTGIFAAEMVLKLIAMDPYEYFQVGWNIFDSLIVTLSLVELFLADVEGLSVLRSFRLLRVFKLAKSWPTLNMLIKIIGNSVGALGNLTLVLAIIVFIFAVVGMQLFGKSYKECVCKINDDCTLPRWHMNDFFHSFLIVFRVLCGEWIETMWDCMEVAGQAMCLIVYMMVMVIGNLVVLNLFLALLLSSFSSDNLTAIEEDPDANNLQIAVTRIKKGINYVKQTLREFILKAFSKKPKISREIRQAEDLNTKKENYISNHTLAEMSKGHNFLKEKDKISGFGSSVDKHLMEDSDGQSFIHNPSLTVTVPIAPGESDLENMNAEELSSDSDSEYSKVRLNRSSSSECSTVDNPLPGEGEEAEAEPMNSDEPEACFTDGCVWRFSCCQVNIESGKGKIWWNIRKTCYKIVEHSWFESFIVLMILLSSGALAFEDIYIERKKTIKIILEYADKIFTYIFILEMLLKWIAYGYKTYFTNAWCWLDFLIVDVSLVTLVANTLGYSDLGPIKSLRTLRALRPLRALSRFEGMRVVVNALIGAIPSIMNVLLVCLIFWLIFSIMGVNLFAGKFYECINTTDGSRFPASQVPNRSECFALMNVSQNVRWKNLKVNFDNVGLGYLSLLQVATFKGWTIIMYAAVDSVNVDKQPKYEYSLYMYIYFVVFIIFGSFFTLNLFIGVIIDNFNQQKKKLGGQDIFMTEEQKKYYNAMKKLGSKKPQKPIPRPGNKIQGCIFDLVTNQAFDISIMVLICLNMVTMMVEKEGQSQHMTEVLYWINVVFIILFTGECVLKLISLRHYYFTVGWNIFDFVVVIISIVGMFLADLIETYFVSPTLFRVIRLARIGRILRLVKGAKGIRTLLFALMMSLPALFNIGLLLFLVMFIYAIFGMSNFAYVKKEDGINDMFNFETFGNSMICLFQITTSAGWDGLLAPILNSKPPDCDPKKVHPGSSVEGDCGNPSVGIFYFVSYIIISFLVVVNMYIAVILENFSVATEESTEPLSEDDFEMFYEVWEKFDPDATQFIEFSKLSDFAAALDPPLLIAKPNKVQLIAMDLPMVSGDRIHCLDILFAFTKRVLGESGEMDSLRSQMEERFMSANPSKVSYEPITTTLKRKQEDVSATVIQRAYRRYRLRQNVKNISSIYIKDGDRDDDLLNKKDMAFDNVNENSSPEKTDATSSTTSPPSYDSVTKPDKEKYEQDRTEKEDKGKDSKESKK
row,IC50 [nM],SMILES
1,1800,"CCn1nc(C(F)(F)F)cc1-c1ccc(Oc2ccc(S(=O)(=O)Nc3ncc(F)cn3)cc2C#N)cc1 [Example 338, 3-cyano-4-{4-[1-ethyl-3-(trifluoromethyl)-1H-pyrazol-5-yl]phenoxy}-N-(5-fluoropyrimidin-2-yl)benzenesulfonamide]"
2,15000,"CCn1nc(C(F)(F)F)cc1-c1ccc(Oc2ccc(S(=O)(=O)Nc3ncccc3Cl)cc2C#N)cc1 [Example 339, N-(3-chloropyridin-2-yl)-3-cyano-4-{4-[1-ethyl-3-(trifluoromethyl)-1H-pyrazol-5-yl]phenoxy}benzenesulfonamide]"
3,34000,"CCn1nc(C(F)(F)F)cc1-c1ccc(Oc2ccc(S(=O)(=O)Nc3ccc(C(F)(F)F)cn3)cc2C#N)cc1 [Example 340, 3-cyano-4-{4-[1-ethyl-3-(trifluoromethyl)-1H-pyrazol-5-yl]phenoxy}-N-[5-(trifluoromethyl)pyridin-2-yl]benzenesulfonamide]"
4,3600,"CCn1nc(C(F)(F)F)cc1-c1ccc(Oc2ccc(S(=O)(=O)Nc3cnsn3)cc2C#N)cc1 [Example 341, 3-cyano-4-{4-[1-ethyl-3-(trifluoromethyl)-1H-pyrazol-5-yl]phenoxy}-N-1,2,5-thiadiazol-3-ylbenzenesulfonamide]"
5,18000,"CCn1nc(C(F)(F)F)cc1-c1ccc(Oc2ccc(S(=O)(=O)Nc3cc(C#N)ccn3)cc2C#N)cc1 [Example 342, 3-cyano-N-(4-cyanopyridin-2-yl)-4-{4-[1-ethyl-3-(trifluoromethyl)-1H-pyrazol-5-yl]phenoxy}benzenesulfonamide]"
6,>10000,"CCn1nc(C(F)(F)F)cc1-c1ccc(Oc2ccc(S(=O)(=O)Nc3ccc(C#N)cn3)cc2C#N)cc1 [Example 343, 3-cyano-N-(5-cyanopyridin-2-yl)-4-{4-[1-ethyl-3-(trifluoromethyl)-1H-pyrazol-5-yl]phenoxy}benzenesulfonamide]"
7,300,"Cn1nccc1-c1cc(F)ccc1Oc1ccc(S(=O)(=O)Nc2ncc(F)s2)cc1F [Example 347, 3-fluoro-4-[4-fluoro-2-(1-methyl-1H-pyrazol-5-yl)phenoxy]-N-(5-fluoro-1,3-thiazol-2-yl)benzenesulfonamide]"
8,>1000,"Cn1ncnc1-c1cc(Cl)ccc1Oc1ccc(S(=O)(=O)Nc2ncc(F)s2)cc1F [Example 349, 4-[4-chloro-2-(1-methyl-1H-1,2,4-triazol-5-yl)phenoxy]-3-fluoro-N-(5-fluoro-1,3-thiazol-2-yl)benzenesulfonamide]"
9,15,"CCc1ccc(Oc2ccc(S(=O)(=O)Nc3nccs3)cc2C#N)c(-c2ccnn2C)c1 [Example 350, 3-cyano-4-[4-ethyl-2-(1-methyl-1H-pyrazol-5-yl)phenoxy]-N-1,3-thiazol-2-ylbenzenesulfonamide]"
10,18,"CC(C)c1ccc(Oc2ccc(S(=O)(=O)Nc3nccs3)cc2C#N)c(-c2ccnn2C)c1 [Example 351, 3-cyano-4-[4-isopropyl-2-(1-methyl-1H-pyrazol-5-yl)phenoxy]-N-1,3-thiazol-2-ylbenzenesulfonamide]"
11,190,"CC(C)c1cc(-n2ccc(C(F)(F)F)n2)ccc1Oc1ccc(S(=O)(=O)Nc2nccs2)cc1C#N [Example 352, 3-cyano-4-{2-isopropyl-4-[3-(trifluoromethyl)-1H-pyrazol-1-yl]phenoxy}-N-1,3-thiazol-2-ylbenzenesulfonamide]"
12,220,"CC(C)c1cc(-n2cc(Cl)cn2)ccc1Oc1ccc(S(=O)(=O)Nc2nccs2)cc1C#N [Example 353, 4-[4-(4-chloro-1H-pyrazol-1-yl)-2-isopropylphenoxy]-3-cyano-N-1,3-thiazol-2-ylbenzenesulfonamide]"
13,180,"CC(C)c1cc(-c2cc(C(F)(F)F)nn2C)ccc1Oc1ccc(S(=O)(=O)Nc2nccs2)cc1C#N [Example 354, 3-cyano-4-{2-isopropyl-4-[1-methyl-3-(trifluoromethyl)-1H-pyrazol-5-yl]phenoxy}-N-1,3-thiazol-2-ylbenzenesulfonamide]"
14,400,"N#Cc1cc(S(=O)(=O)Nc2nccs2)ccc1Oc1ccc(Br)cc1CN1CCCC1 [Example 355, 4-[4-bromo-2-(pyrrolidin-1-ylmethyl)phenoxy]-3-cyano-N-1,3-thiazol-2-ylbenzenesulfonamide]"
15,120,"Cc1cc(C(F)(F)F)nn1-c1ccc(Oc2ccc(S(=O)(=O)Nc3nccs3)cc2C#N)c(C(C)C)c1 [Example 356, 3-cyano-4-{2-isopropyl-4-[5-methyl-3-(trifluoromethyl)-1H-pyrazol-1-yl]phenoxy}-N-1,3-thiazol-2-ylbenzenesulfonamide]"
16,390,"N#Cc1cc(S(=O)(=O)Nc2nccs2)ccc1Oc1ccc(Cl)cc1CN1CCC(O)C1 (stereo not shown) [Example 357, 4-{4-chloro-2-[(3-hydroxypyrrolidin-1-yl)methyl]phenoxy}-3-cyano-N-1,3-thiazol-2-ylbenzenesulfonamide]"
17,360,"N#Cc1cc(S(=O)(=O)Nc2nccs2)ccc1Oc1ccc(Cl)cc1CN1CCC(F)(F)CC1 [Example 358, 4-{4-chloro-2-[(4,4-difluoropiperidin-1-yl)methyl]phenoxy}-3-cyano-N-1,3-thiazol-2-ylbenzenesulfonamide]"

row,IC50 [nM],SMILES
1,11,"Cn1nccc1-c1ccc(I)cc1Oc1ccc(S(=O)(=O)Nc2nccs2)cc1C#N [Example 359, 3-cyano-4-[5-iodo-2-(1-methyl-1H-pyrazol-5-yl)phenoxy]-N-1,3-thiazol-2-ylbenzenesulfonamide]"
2,330,"N#Cc1cc(S(=O)(=O)Nc2nccs2)ccc1Oc1ccc(Cl)cc1CN1CCC(F)(F)C1 [Example 360, 4-{4-chloro-2-[(3,3-difluoropyrrolidin-1-yl)methyl]phenoxy}-3-cyano-N-1,3-thiazol-2-ylbenzenesulfonamide]"
3,480,"Cn1nccc1-c1cc(Cl)ccc1Oc1ccc(S(=O)(=O)Nc2ccncn2)cc1C#N [Example 361, 4-[4-chloro-2-(1-methyl-1H-pyrazol-5-yl)phenoxy]-3-cyano-N-pyrimidin-4-ylbenzenesulfonamide]"
4,480,"Cn1nccc1-c1cc(F)ccc1Oc1cc(F)c(S(=O)(=O)Nc2csnn2)cc1Cl [Example 364, 5-chloro-2-fluoro-4-(4-fluoro-2-(1-methyl-1H-pyrazol-5-yl)phenoxy)-N-(1,2,3-thiadiazol-4-yl)benzenesulfonamide]"
5,69,"Cn1nccc1-c1cc(OC(F)(F)F)ccc1Oc1ccc(S(=O)(=O)Nc2nccs2)cc1F [Example 365, 3-fluoro-4-[2-(1-methyl-1H-pyrazol-5-yl)-4-(trifluoromethoxy)phenoxy]-N-1,3-thiazol-2-ylbenzenesulfonamide]"
6,4800,"N#Cc1cc(S(=O)(=O)Nc2ccc(F)cn2)ccc1Oc1ccccc1-c1ccccc1 [Example 366, 4-(biphenyl-2-yloxy)-3-cyano-N-(5-fluoropyridin-2-yl)benzenesulfonamide]"
7,2400,"CCn1nc(C(F)(F)F)cc1-c1ccc(Oc2ccc(S(=O)(=O)Nc3ccc(F)cn3)cc2C#N)cc1 [Example 367, 3-cyano-4-{4-[1-ethyl-3-(trifluoromethyl)-1H-pyrazol-5-yl]phenoxy}-N-(5-fluoropyridin-2-yl)benzenesulfonamide]"
8,>1000,"CCn1nc(C(F)(F)F)cc1-c1cccc(Oc2ccc(S(=O)(=O)Nc3ccc(F)cn3)cc2C#N)c1 [Example 368, 3-cyano-4-{3-[1-ethyl-3-(trifluoromethyl)-1H-pyrazol-5-yl]phenoxy}-N-(5-fluoropyridin-2-yl)benzenesulfonamide]"
9,490,"CCn1nc(C2CC2)cc1-c1ccc(Oc2ccc(S(=O)(=O)Nc3nccs3)cc2C#N)cc1 [Example 369, 3-cyano-4-[4-(3-cyclopropyl-1-ethyl-1H-pyrazol-5-yl)phenoxy]-N-1,3-thiazol-2-ylbenzenesulfonamid]"
10,1600,"N#Cc1cc(S(=O)(=O)Nc2nccs2)ccc1Oc1ccc(-n2ccc(C3CC3)n2)cc1 [Example 370, 3-cyano-4-[4-(3-cyclopropyl-1H-pyrazol-1-yl)phenoxy]-N-1,3-thiazol-2-ylbenzenesulfonamide]"
11,1800,"Cn1nc(-c2ccc(Oc3ccc(S(=O)(=O)Nc4nccs4)cc3C#N)cc2)cc1C(F)(F)F [Example 371, 3-cyano-4-{4-[1-methyl-5-(trifluoromethyl)-1H-pyrazol-3-yl]phenoxy}-N-1,3-thiazol-2-ylbenzenesulfonamide]"
12,2600,"CCn1nc(-c2ccc(Oc3ccc(S(=O)(=O)Nc4nccs4)cc3C#N)cc2)cc1C1CC1 [Example 372, 3-cyano-4-[4-(5-cyclopropyl-1-ethyl-1H-pyrazol-3-yl)phenoxy]-N-1,3-thiazol-2-ylbenzenesulfonamide]"
13,>1000,"N#Cc1cc(S(=O)(=O)Nc2nccs2)ccc1Oc1ccc(-c2cc(C3CC3)n[nH]2)c(Cl)c1 [Example 373, 4-[3-chloro-4-(3-cyclopropyl-1H-pyrazol-5-yl)phenoxy]-3-cyano-N-1,3-thiazol-2-ylbenzenesulfonamide]"
14,1900,"Cc1cc(-c2ccc(Oc3ccc(S(=O)(=O)Nc4nccs4)cc3C#N)cc2)n(CCO)n1 [Example 374, 3-cyano-4-{4-[1-(2-hydroxyethyl)-3-methyl-1H-pyrazol-5-yl]phenoxy}-N-1,3-thiazol-2-ylbenzenesulfonamide]"
15,>1000,"CN(C)C(=O)c1cnn(-c2ccc(Oc3ccc(S(=O)(=O)Nc4nccs4)cc3C#N)cc2)c1 [Example 375, 1-(4-{2-cyano-4-[(1,3-thiazol-2-ylamino)sulfonyl]phenoxy}phenyl)-N,N-dimethyl-1H-pyrazole-4-carboxamide]"
16,>1000,"COCc1cnn(-c2ccc(Oc3ccc(S(=O)(=O)Nc4nccs4)cc3C#N)cc2)c1 [Example 376, 3-cyano-4-{4-[4-(methoxymethyl)-1H-pyrazol-1-yl]phenoxy}-N-1,3-thiazol-2-ylbenzenesulfonamide]"
17,>1000,"CN(C)Cc1cnn(-c2ccc(Oc3ccc(S(=O)(=O)Nc4nccs4)cc3C#N)cc2)c1 [Example 377, 3-cyano-4-(4-{4-[(dimethylamino)methyl]-1H-pyrazol-1-yl}phenoxy)-N-1,3-thiazol-2-ylbenzenesulfonamide]"

# From US8541588B2, “Sulfonamide derivatives” (Pfizer Limited, priority 2009, dated 2013)
